This is an account of results in patent US9624167B2, “N-(4-hydroxy-4-methyl-cyclohexyl)-4-phenyl-benzenesulfonamides and N-(4-hydroxy-4-methyl-cyclohexyl)-4-(2-pyridyl)benzenesulfonamides and their therapeutic use” (PIMCO 2664 LIMITED, priority 2013, dated 2017).

A short description of data set [1]: Human Liver Microsomal Stability. The class given is in vitro ADME. Particulars: both sexes, pooled liver microsomes, pH 7.4, human liver microsomes 0.5 mg/mL protein, 1 μM compound, 6 time points 0-60 min, two replicates, read-out: T1/2 (2). As to the method: Metabolic stability was measured by determining the rate of disappearance of compound in the presence of human liver microsomal preparations, as quantified by liquid chromatography mass-spectrometry and […] mass-spectrometry (LC-MS/MS).
Metabolic stability of test compounds was measured by determination of the rate of disappearance of the compound when incubated in the presence of human liver microsomes. Liver microsomes are prepared from the endoplasmic reticulum of hepatocytes and are the primary source of the most important enzymes (cytochrome P450s) involved in drug metabolism. Study of drug stability in the presence of liver microsomes is accepted as a valuable model permitting rapid prediction of in vivo drug stability.
Human liver microsomes were obtained from a commercial source. Test compounds (1 μM) were incubated with pooled liver microsomes (male and female). Samples were incubated for a 60 minute period and removed at up to 6 time points and analysed by LC-MS/MS for the presence/amount of test compounds.
Microsomes (final protein concentration 0.25 or 0.5 mg/mL), 0.1 M phosphate buffer pH 7.4, and test compound (final concentration 1 μM; diluted from 10 mM stock solution to give a final DMSO concentration of 0.1%) were incubated at 37° C. prior to the addition of Nicotinamide adenine dinucleotide phosphate (NADPH, final concentration 1 mM) to initiate the reaction. The final incubation volume was 100 μL. A control incubation was included for each compound tested, where 0.1 M phosphate buffer pH 7.4 was added instead of NADPH. […]
Each compound was incubated for 0, 5, 15, 30, 45 or 60 minutes. The reactions were stopped by the addition of 100 μL ice-cold acetonitrile containing internal standard (0.001 mM glipizide) at the appropriate time points. The incubation plates were centrifuged at 4000 rpm for 15 minutes at 4° C. to precipitate the protein and 0.1 mL aliquots were analysed using LC-MS/MS, with the conditions shown in the following table.
From a plot of the natural logarithm of the peak area ratio (i.e., the ratio of compound peak area:internal standard peak area) against time, the gradient of the line was determined.

Another data set concerns J774 macrophages. Description: Resazurin Macrophage J774 Viability Assay. In kind it is cell-based. Particulars: Mus musculus, 12 point concentration range 10 μM to 0.5 nM, n = 4 replicates, mean of 3 independent experiments, 72 hour incubation, read-out: IC50 (2). On the technique in general: Resazurin is reduced to fluorescent resorufin, in cell work by metabolically active cells.

Data set [2] relates to IL-6 release from LPS-stimulated Thp1 macrophages. Nature of the data set: Thp1 Macrophage IL-6 Release Assay. In kind it is cell-based. To be noted: Homo sapiens, THP-1, 1.7 × 10^5 cells/well, 96-well plates, 3 days, 9 point curve, IL6 measured 18 hours after LPS, read-out: IC50 (2). The text has this: Anti-inflammatory effects were further characterised by assessing the production of interleukin-6 (IL-6) by human Thp-1 derived macrophages stimulated with a pro-inflammatory stimulus bacterial lipopolysaccharide (LPS). LPS acts with a cell-surface receptor, Toll-like receptor-4 to activate the NFκB and IRF signalling pathways to produce IL-6. The reduction of IL—in this stimulated assay is indicative of anti-inflammatory effects with utility in the treatment of conditions in which IL-6 production is aberrant.
In vitro potency of test compounds in human cells was determined by incubation with Thp1 macrophages and subsequent stimulation with an inflammatory stimulus (bacterial lipopolysaccharide (LPS)) followed by measurement of cellular interleukin-6 (IL-6) release.
Thp1 cells were plated at a concentration of 1×10^5 cells/well or 1.7×10^5 cells/well in 500 μL or 150 μL RPMI complete media containing 1% penicillin-streptomycin and 10% heat inactivated foetal bovine serum in 24-well plates or 96-well plates, respectively and allowed to adhere overnight. The following day, the cells were stimulated with phorbol myristic acid (PMA) at a final concentration of 100 nM (24-well plates) or 200 nM (96-well plates) to induce differentiation and maintained for up to 8 days with a medium change at 5 days if cells were cultured to 8 days. Test compounds were prepared as […] solutions in DMSO and then serially diluted in DMSO prior to dilution in culture medium.
The diluted compounds were added to the cultures 1 hour prior to stimulation with 100 ng/mL LPS. Following a 16 or 18 hour incubation at 37° C./5% CO2, the cell culture medium was collected and assayed for human IL-6 levels using the human IL-6 duo-set ELISA kit (R&D Systems). The average results for each test compound (n=3) were expressed as a percent (%) of the average control value. The average values across the concentrations tested were then plotted and the IC50 for the inhibition of IL-6 was calculated by fitting the data to a 4-parameter IC50 equation using software from Grafit version 6.0.12 (Erithacus Software Ltd., by Dr Robin Leatherbarrow) or GraphPad Prism version 5.04 for Windows (GraphPad Software, La Jolla, Calif., USA, www.qraphpad.com). Each experiment was repeated twice and the data are presented as the mean IC50 from both experiments.

A short description of data set [3]: Aqueous (FaSSIF) solubility. In kind it is physicochemical. To be noted: fasted state simulated intestinal fluid (FaSSIF), pH 6.8, two replicates, read-out: Solubility (2). As to the method: Solubility was measured by equilibration of the compound in fasted state simulated intestinal fluid (FaSSIF) and quantified by high-performance liquid chromatography (HPLC).
Aqueous solubility was measured by equilibration of compounds with fasted state simulated intestinal fluid (FaSSIF) and quantified spectrophotometrically.
FaSSIF was prepared as described below:
Preparation of blank FaSSIF: 0.21 g of sodium hydroxide (NaOH) pellets, 1.97 g of dihydrogen sodium phosphate (NaH2PO4.2H2O) and 3.09 g of sodium chloride (NaCl) were dissolved in 400 mL of deionised water. […]
Preparation of FaSSIF: 0.056 g of SIF Powder (containing sodium taurocholate and lecithin) (Phares AG) was dissolved in 25 mL of blank FaSSIF and stirred until the powder was completely dissolved. The solution was allowed to stand for 2 hours during which it became opalescent; it was used within 24 hours. The final solution composition was characterised as follows: • Sodium taurocholate: 3 mM • Lecithin: 0.75 mM • Osmolarity: 270±10 mOsmol • pH: 6.5
The optical density was measured at the end of the incubation period for test compounds and a reference used to determine solubility. In brief, two samples were prepared for each determination: a reference sample consisting of a stock solution of test compound in DMSO diluted in system solution (a phosphate free, low absorption buffer) and propanol; and a test sample (prepared in triplicate) consisting of 0.5 mL FaSSIF spiked with test compound at 0.2 mM. Each sample was incubated at room temperature for 16 hours with constant shaking at 250 rpm. At the end of the incubation period, 0.3 mL of each sample was filtered through a pION filter plate (PION, Woburn Mass.), diluted 1:1 with propanol and scanned using UV spectrophotometry at λmax ([…]) using a Spectra Max Plus—Version 2.1000 (Molecular Devices, Sunnyvale, Calif.), with μSOL Explorer solubility determination software (pION, Woburn, Mass.).
FaSSIF solubility was calculated using the following formula:
[formula] wherein: • “OD” is the optical density; • “Cr” is the concentration of the reference (33.4 μM); and • “molecular weight” is for the test compound (e.g., 381.44 for ABD735).

A further data set deals with T1, hERG (Homo sapiens, UniProt Q12809).
T1 construct: expressed in transfected cells; host or cells: Chinese Hamster Ovary cells (hERG-CHO), stably transfected
Nature of the data set: hERG Ion Channel Assay (Q-patch, hERG-CHO cells). The class given is cell-based. Particulars: human, CHO cells stably transfected with hERG (hERG-CHO), pH 7.4, 30 μM, hERG tail current. As to the method: The activity of the compounds against the hERG ion channel was tested. The assay was conducted using the automated path-clamp, Q-patch method using stably transfected Chinese Hamster Ovary cells (hERG-CHO). hERG-CHO cells were cultured in F-12 Kaighn's Nutrient Mixture medium (Invitrogen)+10% FBS at 37° C. for 1-3 days. Cells were kept at 30° C. for 24 to 48 hours prior to patch clamping in order to increase the hERG current amplitude. Subsequently, the cells were harvested by trypsinisation, and kept in Serum Free Medium (SFM) in the Q-patch cell preparation state for up to 6 hours at room temperature before being washed and re-suspended in extracellular solution and applied to the patch clamp sites for data recording.
Patch-clamp voltage protocol: After whole cell configuration was achieved, the cell was held at −80 mV. A 50 millisecond pulse to −40 mV was delivered to measure the leaking current, which was subtracted from the tail current on-line. Then the cell was depolarized to +20 mV for 2 seconds, followed by a one second pulse to −40 mV to reveal hERG tail current. This paradigm was delivered once every 5 seconds to monitor the current amplitude.
Extracellular solution: 137 mM NaCl, 4 mM KCl, 1.8 mM CaCl2, 1 mM MgCl2, 10 mM D(+)-glucose, 10 mM HePES buffer (pH adjusted to 7.4 with NaOH).
After the whole cell configuration was achieved, the extracellular solution (control) was applied first and the cell was stabilized for 2 minutes in extracellular solution. The test compound was then applied from low concentrations to high concentrations cumulatively. The cell was incubated with each test concentration for 5 minutes. During each incubation, the cell was repetitively stimulated using the voltage protocol described above, and the tail current amplitude was continuously monitored.
• (1) Peak tail current >100 pA in control. • (2) Initial run-down <30% and the run-down stops before first application of the test compound. • (3) Leak currents <50% of the control peak tail currents at any time. • (4) rs<20 MΩ throughout the experiment.
The degree of inhibition (%) was obtained by measuring the tail current amplitude, induced by a one second test pulse to −40 mV after a two second pulse to +20 mV, before and after incubation with the test compound. The difference in current was normalized to control and multiplied by 100 in order to obtain the percent inhibition.
Concentration (log) response curves were fitted to a logistic equation (three parameters assuming complete block of the current at very high test compound concentrations) to generate estimates of the 50% inhibitory concentration (IC50). The concentration-response relationship of each compound was constructed from the percentage reductions of current amplitude by sequential concentrations.

In brackets after ≈: the same amount, converted by molar mass.

T1 sequence (Q12809 whole entry): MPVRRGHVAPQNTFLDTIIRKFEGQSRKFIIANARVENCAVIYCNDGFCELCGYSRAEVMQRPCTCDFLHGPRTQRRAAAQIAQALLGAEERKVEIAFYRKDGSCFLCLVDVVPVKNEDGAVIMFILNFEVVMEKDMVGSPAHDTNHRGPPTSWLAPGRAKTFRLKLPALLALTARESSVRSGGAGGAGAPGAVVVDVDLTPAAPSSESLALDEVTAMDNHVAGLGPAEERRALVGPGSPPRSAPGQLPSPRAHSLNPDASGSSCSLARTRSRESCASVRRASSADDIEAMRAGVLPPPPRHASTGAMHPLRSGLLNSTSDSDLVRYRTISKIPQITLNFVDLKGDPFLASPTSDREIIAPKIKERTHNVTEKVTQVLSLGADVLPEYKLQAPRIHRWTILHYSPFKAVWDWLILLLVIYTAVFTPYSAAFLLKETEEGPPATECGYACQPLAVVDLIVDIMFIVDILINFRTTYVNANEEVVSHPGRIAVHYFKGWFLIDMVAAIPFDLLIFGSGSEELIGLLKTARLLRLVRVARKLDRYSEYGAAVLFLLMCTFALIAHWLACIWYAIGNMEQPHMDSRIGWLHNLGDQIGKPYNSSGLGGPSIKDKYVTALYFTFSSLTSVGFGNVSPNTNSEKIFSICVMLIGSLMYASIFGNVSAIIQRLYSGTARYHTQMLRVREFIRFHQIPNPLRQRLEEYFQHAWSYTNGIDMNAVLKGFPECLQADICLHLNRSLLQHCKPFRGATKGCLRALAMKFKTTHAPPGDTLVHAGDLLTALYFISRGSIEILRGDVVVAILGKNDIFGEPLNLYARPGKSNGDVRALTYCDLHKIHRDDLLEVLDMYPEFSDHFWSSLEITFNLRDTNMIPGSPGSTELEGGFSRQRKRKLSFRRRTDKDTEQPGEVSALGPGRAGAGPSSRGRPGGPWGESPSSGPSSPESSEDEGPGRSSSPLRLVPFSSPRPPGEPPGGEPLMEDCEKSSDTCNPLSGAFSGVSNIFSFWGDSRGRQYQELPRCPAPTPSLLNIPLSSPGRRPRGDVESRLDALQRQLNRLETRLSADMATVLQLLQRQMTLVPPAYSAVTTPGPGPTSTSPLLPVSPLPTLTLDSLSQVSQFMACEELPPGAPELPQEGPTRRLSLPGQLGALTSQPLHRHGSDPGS

What is called IC50 is the concentration needed to halve the response being measured. What is called solubility is how much of the substance goes into solution per volume. For `C[C@]1(O)CC[C@H](NS(=O)(=O)c2ccc(-c3ccc(F)cc3C#N)cc2)CC1` [HMC-C-05-A, 2′-Cyano-4′-fluoro-N-((1r,4r)-4-hydroxy-4-methylcyclohexyl)-[1,1′-biphenyl]-4-sulfonamide], the half-life at 1 μM in data set [1] stood at 2.05 h. For the same molecule, the figures for the 50% inhibitory concentration (IC50) (with J774 macrophages; in data set [2]) were 2.46 µM and 1.02 µM, respectively. In addition, the solubility in data set [3] was 190 µg/mL (≈ 489 µM).
A word on the inhibition: it is how much of the control response was suppressed. A low value points to a response near the control. With `C[C@]1(O)CC[C@@H](NS(=O)(=O)c2ccc(-c3ncc(Cl)cc3Cl)c(F)c2)CC1` [HMC-N-04-B], the inhibition at 5 min, 30 µM against hERG was determined as 60%.
Regarding `C[C@]1(O)CC[C@H](NS(=O)(=O)c2ccc(-c3ccc(C#N)cc3F)cc2)CC1` [HMC-C-06-A, 4′-Cyano-2′-fluoro-N-((1r,4r)-4-hydroxy-4-methylcyclohexyl)-[1,1′-biphenyl]-4-sulfonamide], in data set [1], the half-life at 1 μM amounted to 4 h. Besides, the IC50 with J774 macrophages came to 0.71 µM; in data set [2], 0.19 µM. In addition, in data set [3], the solubility was 110 µg/mL (≈ 283 µM).
